Laboratory results taken from the NIST ThermoML archive (doi:10.1021/acs.jced.8b00583).
± gives the expanded uncertainty stated by the source.

Details: for electrical conductivity / viscosity / mass density: 100 kPa; for electrical conductivity / viscosity / mass density / surface tension liquid-gas: Liquid; for electrical conductivity: Alternating current cell with electrodes; for viscosity: Capillary tube (Ostwald / Ubbelohde) method; for mass density: Vibrating tube method; for surface tension liquid-gas: Maximal bubble pressure; for Glass transition temperature: DSC

CC(=O)O.CCCCN [butylammonium acetate]
Details	Glass transition temperature [°C]	electrical conductivity [S/m]	mass density [kg/m3]	surface tension liquid-gas [mN/m]	viscosity [mPa·s]
–	-98.90 ± 2.1	–	–	–	–
293.15 K	–	0.051 ± 0.005	959.02 ± 1.9	31.5 ± 0.3	771.6 ± 84
298.15 K	–	0.065 ± 0.007	955.95 ± 1.9	31.1 ± 0.3	546.33 ± 58
303.15 K	–	0.082 ± 0.008	952.87 ± 1.9	30.8 ± 0.3	397.17 ± 42
308.15 K	–	0.103 ± 0.01	949.87 ± 1.9	30.5 ± 0.3	294.59 ± 31
313.15 K	–	0.128 ± 0.013	946.81 ± 1.9	30.1 ± 0.3	222.26 ± 23
318.15 K	–	0.159 ± 0.016	943.73 ± 1.9	29.8 ± 0.3	163.91 ± 17
323.15 K	–	0.197 ± 0.02	940.83 ± 1.9	29.5 ± 0.3	126.15 ± 13
328.15 K	–	0.244 ± 0.024	937.8 ± 1.9	29.1 ± 0.3	95.03 ± 9.6
333.15 K	–	0.299 ± 0.03	934.68 ± 1.9	28.8 ± 0.3	77.93 ± 7.8

CCCC(=O)[O-].CCCC[NH3+] [n-butylammonium butanoate]
Details	Glass transition temperature [°C]	electrical conductivity [S/m]	mass density [kg/m3]	surface tension liquid-gas [mN/m]	viscosity [mPa·s]
–	-81.80 ± 2.1	–	–	–	–
293.15 K	–	0.031 ± 0.003	907.81 ± 1.8	25.7 ± 0.3	1112 ± 120
298.15 K	–	0.038 ± 0.004	904.94 ± 1.8	25.4 ± 0.3	812.6 ± 89
303.15 K	–	0.047 ± 0.005	902.06 ± 1.8	25.1 ± 0.3	599.38 ± 64
308.15 K	–	0.059 ± 0.006	899.18 ± 1.8	24.8 ± 0.3	448.37 ± 47
313.15 K	–	0.073 ± 0.007	896.28 ± 1.8	24.5 ± 0.3	338.47 ± 35
318.15 K	–	0.089 ± 0.009	893.32 ± 1.8	24.2 ± 0.3	262.05 ± 27
323.15 K	–	0.109 ± 0.011	890.57 ± 1.8	23.9 ± 0.3	199.16 ± 20
328.15 K	–	0.132 ± 0.013	887.56 ± 1.8	23.6 ± 0.3	154.43 ± 16
333.15 K	–	0.159 ± 0.016	884.61 ± 1.8	23.4 ± 0.3	126.18 ± 13

CCC(=O)[O-].CCCC[NH3+] [butylammonium propanoate]
Details	Glass transition temperature [°C]	electrical conductivity [S/m]	mass density [kg/m3]	surface tension liquid-gas [mN/m]	viscosity [mPa·s]
–	-89.40 ± 2.1	–	–	–	–
293.15 K	–	0.049 ± 0.005	933.95 ± 1.9	28.1 ± 0.3	916.56 ± 100
298.15 K	–	0.06 ± 0.006	930.84 ± 1.9	27.8 ± 0.3	669.24 ± 72
303.15 K	–	0.074 ± 0.007	927.79 ± 1.9	27.5 ± 0.3	494.64 ± 53
308.15 K	–	0.091 ± 0.009	924.86 ± 1.9	27.1 ± 0.3	371.06 ± 39
313.15 K	–	0.111 ± 0.011	921.76 ± 1.9	26.8 ± 0.3	280.47 ± 29
318.15 K	–	0.135 ± 0.014	918.77 ± 1.9	26.5 ± 0.3	211.76 ± 22
323.15 K	–	0.164 ± 0.016	915.69 ± 1.8	26.2 ± 0.3	162.68 ± 17
328.15 K	–	0.196 ± 0.02	912.7 ± 1.8	25.9 ± 0.3	128.4 ± 13
333.15 K	–	0.234 ± 0.023	909.66 ± 1.8	25.6 ± 0.3	99.35 ± 10

CCCC[NH3+].O=C[O-] [butylammonium formate]
Details	Glass transition temperature [°C]	electrical conductivity [S/m]	mass density [kg/m3]	surface tension liquid-gas [mN/m]	viscosity [mPa·s]
–	-108.50 ± 2.1	–	–	–	–
293.15 K	–	0.287 ± 0.029	976.96 ± 2	33.8 ± 0.3	160.19 ± 16
298.15 K	–	0.332 ± 0.033	973.8 ± 2	33.3 ± 0.3	120.82 ± 12
303.15 K	–	0.384 ± 0.038	970.66 ± 1.9	32.9 ± 0.3	92.68 ± 9.3
308.15 K	–	0.443 ± 0.044	967.48 ± 1.9	32.4 ± 0.3	72.01 ± 7.2
313.15 K	–	0.511 ± 0.051	964.4 ± 1.9	32 ± 0.3	57.07 ± 5.7
318.15 K	–	0.588 ± 0.059	961.21 ± 1.9	31.5 ± 0.3	45.61 ± 4.6
323.15 K	–	0.67 ± 0.07	958.02 ± 1.9	31.1 ± 0.3	37.22 ± 3.7
328.15 K	–	0.761 ± 0.076	954.95 ± 1.9	30.6 ± 0.3	30.62 ± 3.1
333.15 K	–	0.873 ± 0.087	951.82 ± 1.9	30.2 ± 0.3	25.39 ± 2.5
